This passage reports IC50 results from patent publication US11247987B2, “Inhibiting ubiquitin specific peptidase 30” (FORMA Therapeutics, Inc., priority 2017, dated 2022).

For the assay, the target named is T1, human recombinant USP30 (Homo sapiens, UniProt Q70CQ3).
T1 construct: purchased Boston Biochem E-582
T1 sequence (Q70CQ3 1-517): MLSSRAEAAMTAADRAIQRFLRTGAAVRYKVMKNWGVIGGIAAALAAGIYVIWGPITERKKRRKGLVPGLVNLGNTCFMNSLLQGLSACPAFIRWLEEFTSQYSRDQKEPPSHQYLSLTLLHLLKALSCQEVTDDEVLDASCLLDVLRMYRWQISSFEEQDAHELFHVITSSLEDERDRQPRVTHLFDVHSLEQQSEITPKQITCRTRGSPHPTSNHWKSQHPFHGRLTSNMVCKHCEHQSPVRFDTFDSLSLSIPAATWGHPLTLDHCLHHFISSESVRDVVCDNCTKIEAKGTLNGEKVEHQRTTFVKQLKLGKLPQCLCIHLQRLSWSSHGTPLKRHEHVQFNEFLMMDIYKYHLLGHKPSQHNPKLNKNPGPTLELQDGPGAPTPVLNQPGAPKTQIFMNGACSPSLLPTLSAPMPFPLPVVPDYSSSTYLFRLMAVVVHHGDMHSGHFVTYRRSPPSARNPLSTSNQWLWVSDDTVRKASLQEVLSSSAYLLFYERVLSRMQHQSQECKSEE
Description: Ubiquitin-Rhodamine 110 Assay for USP30 Activity (USP30 Inhibitor Biochemical Assay). The settings on record: 0.2 nM USP30, 25 nM Ub-Rh110, 30 min preincubation, 30 min at room temperature; read-out: USP30 potency range (USP30 biochemical IC50 assay, IC50 ranges). As for the experimental part:
Example A: Biochemical Assay: Ubiquitin-Rhodamine 110 Assay for USP30 Activity (USP30 Inhibitor Biochemical Assay)
The assay was performed in a final volume of 9 μL in assay buffer containing 20 mM Tris-HCl (pH 8.0, (1M Tris-HCl, pH 8.0 solution; Corning 46-031-CM)), 1 mM GSH (L-glutathione reduced, Sigma-Aldrich, G4251-100G), 0.03% BGG (0.22 μM filtered, Sigma, G7516-25G), and 0.01% Triton X-100 (Sigma, T9284-10L). Nanoliter quantities of 10-point, 3-fold serial dilution in DMSO were pre-dispensed into 1536 assay plates (Corning, #3724BC) for a final test concentration of 25 μM to 1.3 nM, top to lowest dose, respectively. Concentration and incubation times were optimized for the maximal signal-to-background while maintaining initial velocity conditions at a fixed substrate concentration. The final concentration of USP30 (human recombinant USP30, Boston Biochem, cat. # E-582) in the assay was 0.2 nM. […] 3 μL of 2×USP30 was added to assay plates (pre-stamped with compound), preincubated for 30 minutes and then treated with 3 μL of 2×Ub-Rh110. Plates were incubated for 30 minutes at room temperature before addition of 3 μL of stop solution (final concentration of 10 mM citric acid (Sigma, 251275-500G)). Fluorescence was read on the Envision (excitation at 485 nm and emission at 535 nm; Perkin Elmer) or on the PheraSTAR (excitation at 485 nm and emission at 535 nm; BMG Labtech).
For all assay formats data were reported as percent inhibition compared with control wells based on the following equation: % inh=1−((FLU−AveLow)/(AveHigh−AveLow)) where FLU=measured Fluorescence, AveLow=average Fluorescence of no enzyme control (n=16), and AveHigh=average Fluorescence of DMSO control (n=16). IC50 values were determined by curve fitting of the standard 4 parameter logistic fitting algorithm included in the Activity Base software package: IDBS XE Designer Model205. Data is fitted using the Levenburg Marquardt algorithm.
`N#CN[C@H]1CC[C@@H](C(=O)Nc2ncc(C3CCCCC3)s2)CC1` [Compound 10-1, cis-4-(cyanoamino)-N-(5-cyclohexyl-1,3-thiazol-2-yl)cyclohexane-1-carboxamide]: the IC50 lay within 100 to 1000 nM. As to `N#CN[C@H]1C[C@@](F)(C(=O)Nc2nc(Cl)c(C3CCCCC3)s2)C1` [Compound 1-48, (1r,3r)-N-(4-chloro-5-cyclohexyl-1,3-thiazol-2-yl)-3-(cyanoamino)-1-fluorocyclobutane-1-carboxamide], the IC50 was less than 100 nM. Then `CN(c1nc(Cl)c(C(C)(C)C)s1)C(=O)[C@]1(F)C[C@H](NC#N)C1` [Compound 1-54, (1r,3r)-N-(5-tert-butyl-4-chloro-1,3-thiazol-2-yl)-3-(cyanoamino)-1-fluoro-N-methylcyclobutane-1-carboxamide], with less than 100 nM; and `N#CN[C@H]1CC[C@@H](C(=O)Nc2ncc(-c3ccccc3)s2)C1` [Compound 12-1, (1R,3S)-3-(cyanoamino)-N-(5-phenyl-1,3-thiazol-2-yl)cyclopentane-1-carboxamide], with 1000 to 10000 nM. As for `N#CN[C@@H]1CCC[C@@H]1C(=O)Nc1ncc(C2CCCCC2)s1` [Compound 10-8, (1S,2R)-2-(cyanoamino)-N-(5-cyclohexyl-1,3-thiazol-2-yl)cyclopentane-1-carboxamide], the IC50 is 1000 to 10000 nM.

Regarding `CC(C)(C)c1sc(NC(=O)[C@]2(F)C[C@@H](NC#N)C2)nc1Cl` [Compound 1-59, (1s,3s)-N-(5-tert-butyl-4-chloro-1,3-thiazol-2-yl)-3-(cyanoamino)-1-fluorocyclobutane-1-carboxamide], the IC50 lay in the range of 100 to 1000 nM. Consider `CN(c1nc(Cl)c(C2CCCCC2)s1)C(=O)[C@]1(F)C[C@@H](NC#N)C1` [Compound 1-58, (1s,3s)-N-(4-chloro-5-cyclohexyl-1,3-thiazol-2-yl)-3-(cyanoamino)-1-fluoro-N-methylcyclobutane-1-carboxamide], for which the half-maximal inhibitory concentration (IC50) was in the range of 100 to 1000 nM. On to `N#CN[C@H]1CC[C@H](C(=O)N2CCN(c3ccccc3)CC2)C1` [Compound 12-6, {[(1S,3S)-3-(4-phenylpiperazine-1-carbonyl)cyclopentyl]amino}carbonitrile], for which the half-inhibitory concentration (IC50) was greater than 25000 nM. For `N#CN[C@H]1CC[C@H](C(=O)Nc2ccc3c(c2)CCC3)C1` [Compound 12-5, (1S,3S)-3-(cyanoamino)-N-(2,3-dihydro-1H-inden-5-yl)cyclopentane-1-carboxamide], the IC50 fell in the range of 10000 to 25000 nM. Regarding `N#CN[C@H]1CCN(C(=O)c2csc(-c3cccc(Cl)c3Cl)n2)C1` [Compound 12-8, {[(3S)-1-[2-(2,3-dichlorophenyl)-1,3-thiazole-4-carbonyl]pyrolidin-3-yl]amino}carbonitrile], the IC50 was in the range of 1000 to 10000 nM. Then `N#CN[C@H]1C[C@H](C(=O)Nc2ccn(-c3ccccc3)n2)C1` [Compound 5-6, trans-3-(cyanoamino)-N-(1-phenyl-1H-pyrazol-3-y1)cyclobutane-1-carboxamide], with 1000 to 10000 nM; and `CN(c1ncc(C(C)(C)C)s1)C(=O)[C@H]1C[C@H](NC#N)C1` [Compound 1-5, (1r,3r)-N-(5-tert-butyl-1,3-thiazol-2-yl)-3-(cyanoamino)-N-methylcyclo-butane-1-carboxamide], with 100 to 1000 nM. As to `N#CN[C@H]1CC[C@H](C(=O)Nc2ncc(C3CCOCC3)s2)C1` [Compound 10-10, (1S,3S)-3-(cyanoamino)-N-[5-(oxan-4-yl)-1,3-thiazol-2-yl]cyclopentane-1-carboxamide], the concentration for half-maximal inhibition (IC50) fell in the range of 1000 to 10000 nM. As to `N#CN[C@H]1C[C@@H](C(=O)Nc2nc(Cl)c(C3CCCCC3)s2)C1` [Compound 1-18, (1s,3s)-N-(4-chloro-5-cyclohexyl-1,3-thiazol-2-yl)-3-(cyanoamino)cyclo-butane-1-carboxamide], the IC50 fell in the range of 100 to 1000 nM. Consider `N#CN[C@H]1CCN(C(=O)Nc2ncc(C3CCCCC3)s2)C1` [Compound 2-2, (3S)-3-(cyanoamino)-N-(5-cyclohexyl-1,3-thiazol-2-yl)pyrrolidine-1-carboxamide], for which the IC50 was 1000 to 10000 nM. The same measure for `N#CN[C@H]1C[C@H](C(=O)Nc2cccc(-c3ccccc3)c2)C1` [Compound 1-69, (1r,3r)-3-(cyanoamino)-N-(3-phenylphenyl)cyclo-butane-1-carboxamide]: 100 to 1000 nM; for `CC1(C)CCCC[C@@H]1c1ncc(NC(=O)[C@H]2C[C@H](NC#N)C2)s1` [Compound 1-12, (1r,3r)-3-(cyanoamino)-N-{2-[(1S)-2,2-dimethylcyclohexyl]-1,3-thiazol-5-yl}cyclobutane-1-carboxamide]: less than 100 nM.

In the case of `N#CN[C@H]1C[C@H](C(=O)Nc2nc(-c3ccc(Cl)cc3)cs2)C1` [Compound 1-68, (1r,3r)-N-[4-(4-chlorophenyl)-1,3-thiazol-2-yl]-3-(cyanoamino)cyclo-butane-1-carboxamide], the concentration for half-maximal inhibition (IC50) fell in the range of 100 to 1000 nM. As to `N#CN[C@H]1C[C@]2(CCN(c3nc(Cl)c(C4CCCCC4)s3)C2=O)C1` [Compound 7-3, {[(2r,4s)-6-(4-chloro-5-cyclohexyl-1,3-thiazol-2-yl)-5-oxo-6-azaspiro[3.4]octan-2-yl]amino}carbonitrilc], the IC50 is less than 100 nM.

On to `Cn1cc(-c2ccc(-c3cc(C(=O)N4CCC[C@]45C[C@H](NC#N)C5)on3)cc2)cn1` [Compound 3-4, {[(2r,4s)-5-{3-[4-(1-methyl-1H-pyrazol-4-yl)phenyl]-1,2-oxazole-5-carbonyl}-5-azaspiro[3.4]octan-2-yl]amino} carbonitrile], for which the IC50 fell in the range of 100 to 1000 nM. Consider `Cn1nc(-c2ccccc2)cc1NC(=O)[C@H]1C[C@H](NC#N)C1` [Compound 1-2, (1r,3r)-3-(cyanoamino)-N-(1-methyl-3-phenyl-1H-pyrazol-5-yl)cyclobutane-1-carboxamide], for which the IC50 lay in the range of 100 to 1000 nM. With `N#CN[C@H]1C[C@H](C(=O)Nc2ncc(-c3cccc(C#N)c3)s2)C1` [Compound 1-40, (1r,3r)-3-(cyanoamino)-N-[5-(3-cyanophenyl)-1,3-thiazol-2-yl]cyclobutane-1-carboxamide], the half-maximal inhibitory concentration (IC50) fell in the range of 100 to 1000 nM. For `Cn1nc(C2CCCCC2)cc1NC(=O)[C@H]1C[C@H](NC#N)C1` [Compound 1-6, (1r,3r)-3-(cyanoamino)-N-(3-cyclohexyl-1-methyl-1H-pyrazol-5-yl)cyclobutane-1-carboxamide], the IC50 is 100 to 1000 nM. In the case of `N#CN[C@H]1C[C@H](C(=O)Nc2nc3cccc(OC4CCC4)c3s2)C1` [Compound 1-64, (1r,3r)-3-(cyanoamino)-N-(7-cyclobutoxy-1,3-benzothiazol-2-yl)cyclobutane-1-carboxamide], the 50% inhibitory concentration (IC50) is 100 to 1000 nM.

As to `N#CN[C@H]1C[C@H](C(=O)Nc2ncc([C@@H]3CC4CCC3CC4)s2)C1` [Compound 1-37, (1r,3r)-N-{5-[(2R)-bicyclo[2.2.2]octan-2-yl]-1,3-thiazol-2-yl}-3-(cyanoamino)cyclo-butane-1-carboxamide], the IC50 was less than 100 nM.

In the case of `N#CN[C@H]1C[C@](F)(C(=O)Nc2nc3cccc(OC4CCC4)c3s2)C1` [Compound 1-66, (1s,3s)-3-(cyanoamino)-N-(7-cyclobutoxy-1,3-benzothiazol-2-yl)-1-fluorocyclobutane-1-carboxamide], the 50% inhibitory concentration (IC50) was in the range of 100 to 1000 nM. Then `N#CN[C@H]1C[C@@H](C(=O)Nc2cnn(-c3ccccc3)c2)C1` [Compound 5-1, cis-3-(cyanoamino)-N-(1-phenyl-1H-pyrazol-4-yl)cyclobutane-1-carboxamide], with 1000 to 10000 nM.

What is called IC50 is the concentration needed to halve the response being measured.
